Results: paper PMC3158126, “Characterization of antigenic variants of hepatitis C virus in immune evasion” (Virology Journal, 2011)

What was measured:
HLA-DRB1*1501 molecules = HLA-DRB1*1501 molecules (Homo sapiens, UniProt P01903+P01911); conditions: cited from earlier work
From the text: Our previous studies identified a CD4 epitope derived from the NS3 protein of HCV, NS3_358-375 [38]. […] Antigenic variants of the Th1 epitope were identified by RT-PCR, cloning and sequencing. Peptides of wild type NS3_358-375 and its variants (single or double amino acid substitutions) were synthesized and used in the current study (Table 1).

[1] = tested on: PBMC from a HCV-infected patient B3019; assay: T-cell proliferation (tritiated thymidine incorporation) with single wild type and variant peptides; format: cell-based, human; conditions: flow cytometry analysis of cells stimulated by wild type peptide
[2] = tested on: CD4+ T cells of HCV-infected patient; assay: Foxp3 and CTLA-4 (CD152) expression on CD4+CD25+ and CD4+CD25- cells, flow cytometry; format: cell-based, human
Protocol: (§1) The purified CD4^+ cells were treated with 0.5 ml of fix/permeabilizing solution (BD Pharmingen) for 10 minutes. After washing, the appropriate volume of specific fluorescent-labeled anti-CD25-ECD, anti-IFN-γ-FITC, anti-IL-10-PE, anti-TGF-β1-biotin and streptavidin-CyChrome were added to each of the tubes. One additional tube of CD4^+ cells were incubated with Foxp3-FITC, CD152 (CTLA-4)-PE and CD25-ECD. A tube of pooled CD4^+ cells from each culture was stained with isotype antibodies equivalent to each of the antibodies described above. In addition, four tubes of pooled CD4^+ cells were stained with each of the above antibodies alone as single-color controls which is necessary for color compensation. All tubes were incubated for 30 minutes in dark at room temperature. After washing, cells were re-suspended in 300 μl of wash buffer (BD Pharmingen), and a four color or three-color flow cytometry assay was performed within 24 hours at the Flow Cytometry Service Laboratory of the University of Illinois at Chicago. A total 1 × 10^5 cells were counted to determine the ratio of CD25^+, CD25^- and cytokine producing cells of each CD4^+ population.
Figure 4 Characteristics of antigen-driven CD25^+ and CD25^- Tregs. Cellular culture and separation of CD4^+ T cells and controls were the same as described in Figure 2. The purified CD4^+ cells were stained with fluorescent-labeled antibodies for human CD25, CTLA-4 and Foxp3 followed by a flow cytometry assay. The effect of peptide NS3_358-375 and variant pools VP1 and VP2 on expression of Foxp3 (A) and CTLA-4 (B) on CD4^+CD25^- (blue) and CD4^+CD25^+ (red) T cells is shown. Median values for each population are shown in the boxes. One representative of two experiments is shown. […]

[3] = tested on: CD4+ cells from PBMC of HLA-DRB1*15-positive HCV-infected patients; assay: Intracellular cytokine staining and flow cytometry of purified CD4+ cells (Treg phenotypes), HCV+ patients; format: cell-based, human
Protocol: (§2) PBMCs were re-suspended at a concentration of 1 × 10^6 /ml in RPMI 1640 tissue culture medium as mentioned above in the description of the proliferation assay. 1 ml aliquots of PBMC were added to a 24-well tissue culture plate containing each wild type NS3_358-375 or variant pool, and medium alone. The concentrations of peptides are 5 μM for NS3_358-375 and 1 μM for each of variant peptides. After culturing for 66 hours, the PBMCs were treated with anti-human CD4 antibodies and magnetic micro-beads (Miltenyi Biotec, Auburn, CA) for positive selection of CD4 cells using a Magnetic Cell Separator (MACS, Miltenyi Biotec). The purity of CD4^+ cells obtained was 99.3% determined by Flow Cytometry.
as §1
Figure 3 Treg phenotypes induced by peptide NS3_358-375 and variant pools VP1 and VP2. Cell culture adn purification of CD4^+ cells and controls were the same as described in Figure 2. Intracellular staining and four-color flow cytometry using fluorescent-labeled antibodies to human CD25, IFN-γ, TGF-β and IL-10 were performed with purified CD4^+ cells. A pool from each test was used as an isotype control. A: Percentages of CD25^+ gated CD4^+ cells. […] B: Percentages of Th3 and Tr1 cells. Note that 58~67% of the CD25^+ cells were TGF-β^+ (sum of the upper two quadrants). A majority of the CD25^+IL-10^+ cells were also TGF-β^+ (the upper right quadrant). C: Percentages of CD25^- gated CD4^+ cells. D: Percentages of Th3 and Tr1 cells. […] Two representatives of eight experiments are shown. […]

[4] = tested on: CD4+ cells from PBMC of HLA-DRB1*15-positive healthy individuals; assay: Intracellular cytokine staining and flow cytometry of purified CD4+ cells (Treg phenotypes), HCV- healthy subjects; format: cell-based, human; conditions: median (range), n = 3 HLA-DRB1*15+ healthy subjects; NS3_358-375 5 μM or variant pool 1 μM each peptide, 66 hours
Protocol: as §2, §1
Supplementary file 1743-422X-8-377-S3.DOC: Additional file 3 Figure S2. CD4+CD25+ and CD4+CD25- Tregs of a HCV- healthy individual. Experiments, controls, and data analysis were the same as described in Figure 4. A: Percentages of CD25+ and CD25- gated CD4+ cells. B: Percentages of CD25+ Th3 and Tr1 cells. C: Percentages of CD25- Th3 and Tr1 cells. A single representative of three experiments is shown. Click here for file

[5] = cells obtained at about 1.5 years of HCV infection, Figure S3
[6] = median (range), n = 6 HLA-DRB1*15+ HCV+ patients, NS3_358-375 5 μM or variant pool 1 μM each peptide, 66 hours

## VIKGGRHLIFCHSKKKCD [NS3_358-375]
HLA-DRB1*1501 molecules
  binding to HLA-DRB1*1501: binds to HLA-DRB1*1501 well
[1]
  proportion of peripheral proliferating cells that were CD4+: greater than 95%
[2]; CD25+ cells
  expression of Foxp3 and CTLA-4 compared to cells cultured with medium alone: down-regulated
[2]; Figure 4A, one representative of two experiments
  Foxp3 level in CD4+CD25+ cells (median value): 77.8
[2]; Figure 4B, one representative of two experiments
  CTLA-4 (CD152) level on CD4+CD25+ cells (median value): 38.4
[3]; Figure 3A, representative experiment, NS3_358-375 5 μM, pools 1 μM each peptide, listed as wild-type peptide
  ratio of CD4+CD25+ cells (CD25+ gated CD4+ cells): 26.0%
[3]; Figure 3D, text value (upper two quadrants)
  percentage of CD25-TGF-β+ cells among CD4+CD25- cells: 12.7%
[3]; PBMCs from another DRB1*15+ patient infected with HCV over 20 years, Figure S4
  CD25-IL-10+ Tr1 cells: 25%
[3]; [5]
  CD25+ IL-10-secreting Tr1 cells: 2.9%
  CD25- IL-10-secreting Tr1 cells: 7.6%
[3]; [6]
  CD25+ of CD4+ cells, HCV+ patients: 21.6 (18 - 27) %
  IL-10+ of CD4+CD25+ cells, HCV+ patients: 6.51 (3.0 - 11) %
  TGFβ+ IL-10+ of CD4+CD25+ cells, HCV+ patients: 7.85 (5.0 - 12) %
  TGFβ+ of CD4+CD25+ cells, HCV+ patients: 55.4 (37 - 59) %
[4]
  CD25+ of CD4+ cells, HCV- subjects: 10.1 (10 - 14) %
  IL-10+ of CD4+CD25+ cells, HCV- subjects: 2.95 (2.6 - 3.2) %
  TGFβ+ IL-10+ of CD4+CD25+ cells, HCV- subjects: 0.67 (0.5 - 2.5) %
  TGFβ+ of CD4+CD25+ cells, HCV- subjects: 5.04 (2.0 - 8.5) %
